Tested on: KRAS-mutant PDC tumor spheroid with HUVEC/MSC, viability
Experiment: Anticancer human tumor 327498-153-R-J2-PDC patient-derived uterine carcinosarcoma cell line growth inhibition [KRAS2]
Conditions: for IC50: curve of first compound; for viability, T/C: stronger effect = lower value
Description: Multicellular complex tumor spheroid response to RAS pathway inhibitors in combination with a targeted agents in patient-derived cell lines with oncogenic KRAS variants from multiple cancer types
A high-throughput screen of multi-cell type tumor spheroids was designed to identify active combinations of targeted small molecules and KRAS pathway inhibitors. Complex spheroids include a stromal component modeled by human endothelial cells (HUVEC) and fibroblasts modeled by human mesenchymal stem cells (MSCs). The concentration ranges selected for each drug and investigational agent were based upon clinically achievable concentrations if the clinical Cmax of the agent was known.
Compounds. The drugs and investigational agents: BI-3406 (NSC825286), BAY-293 (NSC824723), batoprotafib (TNO155; NSC825523), sotorasib (AMG 510; NSC818433), MRTX1257 (NSC819558), elimusertib (BAY 1895344; NSC800525), molibresib (GSK525762; NSC774829), temuterkib (LY3214996; NSC803410), venetoclax (NSC766270), alisertib (NSC759677), olaparib (NSC753686), talazoparib (NSC767125), erdafitinib (NSC781556), ipatasertib (NSC767898), cabozantinib (NSC761068), nintedanib (NSC756659), abemaciclib (NSC768073), docetaxel (NSC628503), trametinib (NSC758246), and sapanisertib (NSC764658) were obtained from the National Cancer Institute (NCI) Developmental Therapeutics Program Chemical Repository. The FDA-approved anticancer drug set is available from the Developmental Therapeutics Program. […] The stock solutions were prepared in dimethyl sulfoxide (DMSO, Sigma-Aldrich, St. Louis, MO, cat. D2650) at 800-fold the tested concentration and stored at -70 degrees C prior to their use. All drugs and investigational agents were tested over a range starting from a high concentration at or near the clinical Cmax and decreasing in half-log increments. If the clinical Cmax for an agent had not been determined, the highest concentration tested was 10 microM.
Cell Culture. All cells were maintained in an incubator at 37 degrees C and 5% CO2 with 95% humidity. The PDC lines were cultured according to standard operating procedures established by the NCI PDMR (https://pdmr.cancer.gov/sops/default.htm). Briefly, all PDCs were thawed and cultured in Matrigel-coated flasks prepared with a working solution of 1X Ham's F-12 nutrient mix, without supplementation (Invitrogen, Waltham, MA, cat. 11765054), 100 U/mL penicillin-streptomycin (Invitrogen, cat. 15140122), and 2.5% Matrigel (Corning Inc., Corning, NY, cat. 354248) for the first three passages. All PDCs were cultured in complete DMEM/F-12 media containing advanced DMEM/F-12 (Invitrogen, cat. 12634028), 4.9% defined fetal bovine serum, heat inactivated (HyClone Laboratories Inc., Logan, UT, cat. SH30070.03HI), 389 ng/mL hydrocortisone (Sigma-Aldrich, cat. H4001), 9.7 ng/mL human EGF recombinant protein (Invitrogen, cat. PHG0313), 23.4 microg/mL adenine (Sigma-Aldrich, cat. A2786), 97.3 U/mL penicillin-streptomycin (Invitrogen, cat. 15140122), 1.9 mM L-glutamine (Invitrogen, cat. 25030081), and 9.7 microM Y-27632 dihydrochloride (Tocris Bioscience, Bristol, United Kingdom, cat. 1254). The PDCs were cultured in complete DMEM/F12 media without 9.7 microM Y-27632 dihydrochloride for at least two passages prior to the screen. The established cell line HOP-62 was cultured in RPMI 1640 medium, HEPES (Invitrogen, cat. 22400105) with 10% defined fetal bovine serum (HyClone Laboratories Inc., cat. SH30070.03) and 2 mM L-glutamine (Invitrogen, cat. 25030081). The pooled donor HUVEC were cultured in endothelial cell growth medium 2 (PromoCell, Heidelberg, Germany, cat. C-22011) and the hMSC were cultured in mesenchymal stem cell growth medium 2 (PromoCell, cat. C-28009). For all experiments, HUVEC and hMSC were used at passages </=5, while the malignant cell lines were used at passages </=15. […]

[1] = second compound 0.1 µM, first compound 0.01 µM
[2] = second compound 0.1 µM, first compound 0.0316 µM
[3] = second compound 0.1 µM, first compound 0.1 µM
[4] = second compound 0.316 µM, first compound 0.01 µM
[5] = second compound 0.316 µM, first compound 0.0316 µM
[6] = second compound 0.316 µM, first compound 0.1 µM
[7] = second compound 1 µM, first compound 0.01 µM
[8] = second compound 1 µM, first compound 0.0316 µM
[9] = second compound 1 µM, first compound 0.1 µM
[10] = second compound 3.16 µM, first compound 0.01 µM
[11] = second compound 3.16 µM, first compound 0.0316 µM
[12] = second compound 3.16 µM, first compound 0.1 µM
[13] = second compound 10 µM, first compound 0.01 µM
[14] = second compound 10 µM, first compound 0.0316 µM
[15] = second compound 10 µM, first compound 0.1 µM
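Also: spheroids exposed to agents for seven days before reading.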
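For viability, T/C in this document: 100% = DMSO vehicle wells so lower means fewer viable cells.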

Compound | IC50 (second compound 0.1 µM) [µM] | IC50 (second compound 0.316 µM) [µM] | IC50 (second compound 1 µM) [µM] | IC50 (second compound 3.16 µM) [µM] | IC50 (second compound 10 µM) [µM] | viability, T/C [1] [%] | viability, T/C [2] [%] | viability, T/C [3] [%] | viability, T/C [4] [%] | viability, T/C [5] [%] | viability, T/C [6] [%] | viability, T/C [7] [%] | viability, T/C [8] [%] | viability, T/C [9] [%] | viability, T/C [10] [%] | viability, T/C [11] [%] | viability, T/C [12] [%] | viability, T/C [13] [%] | viability, T/C [14] [%] | viability, T/C [15] [%] | further results
CC(=O)OC12COC1CC(O)C1(C)C(=O)C(O)C3=C(C)C(OC(=O)C(O)C(NC(=O)OC(C)(C)C)c4ccccc4)CC(O)(C(OC(=O)c4ccccc4)C21)C3(C)C (stereo not given) + CNCc1ccccc1-c1csc(C(C)Nc2nc(C)nc3cc(OC)c(OC)cc23)c1 | < 0.01 | < 0.01 | < 0.01 | < 0.01 | < 0.01 | 7.46 | 5.57 | 5.61 | 7.41 | 5.76 | 8.79 | 9.89 | 6.01 | 6.6 | 8.09 | 0.04 | 0.03 | 0.78 | 0.42 | 2.08 | viability, T/C (second compound 0.1 µM, first compound 0.316 µM): 7.57%; viability, T/C (second compound 0.1 µM, first compound 1 µM): 8.63%; viability, T/C (second compound 0.1 µM, first compound 3.16 µM): 13.1%; viability, T/C (second compound 0.316 µM, first compound 0.316 µM): 6.37%; viability, T/C (second compound 0.316 µM, first compound 1 µM): 9.11%; viability, T/C (second compound 0.316 µM, first compound 3.16 µM): 10.8%; viability, T/C (second compound 1 µM, first compound 0.316 µM): 7.2%; viability, T/C (second compound 1 µM, first compound 1 µM): 11%; viability, T/C (second compound 1 µM, first compound 3.16 µM): 10.6%; viability, T/C (second compound 3.16 µM, first compound 0.316 µM): 0.04%; viability, T/C (second compound 3.16 µM, first compound 1 µM): 0.48%; viability, T/C (second compound 3.16 µM, first compound 3.16 µM): 10.4%; viability, T/C (second compound 10 µM, first compound 0.316 µM): 0.12%; viability, T/C (second compound 10 µM, first compound 1 µM): 10.2%; viability, T/C (second compound 10 µM, first compound 3.16 µM): 0.25%
CN(C)C/C=C/C(=O)Nc1cc2c(Nc3ccc(F)c(Cl)c3)ncnc2cc1O[C@H]1CCOC1 + CNCc1ccccc1-c1csc(C(C)Nc2nc(C)nc3cc(OC)c(OC)cc23)c1 | > 0.1 | > 0.1 | > 0.1 | 0.00172 | < 0.000316 | 81 | 71.5 | 77.4 | 67.2 | 65.8 | 64 | 73.4 | 58.2 | 65.7 | 1.18 | 22.6 | 21.1 | 0.27 | 1.73 | 0.36 | viability, T/C (second compound 0.1 µM, first compound 0.000316 µM): 87.9%; viability, T/C (second compound 0.1 µM, first compound 0.001 µM): 79.1%; viability, T/C (second compound 0.1 µM, first compound 0.00316 µM): 79.7%; viability, T/C (second compound 0.316 µM, first compound 0.000316 µM): 78.9%; viability, T/C (second compound 0.316 µM, first compound 0.001 µM): 67.8%; viability, T/C (second compound 0.316 µM, first compound 0.00316 µM): 73.9%; viability, T/C (second compound 1 µM, first compound 0.000316 µM): 76.6%; viability, T/C (second compound 1 µM, first compound 0.001 µM): 67.9%; viability, T/C (second compound 1 µM, first compound 0.00316 µM): 64%; viability, T/C (second compound 3.16 µM, first compound 0.000316 µM): 62.1%; viability, T/C (second compound 3.16 µM, first compound 0.001 µM): 51.1%; viability, T/C (second compound 3.16 µM, first compound 0.00316 µM): 42.6%; viability, T/C (second compound 10 µM, first compound 0.000316 µM): 0.49%; viability, T/C (second compound 10 µM, first compound 0.001 µM): 0.76%; viability, T/C (second compound 10 µM, first compound 0.00316 µM): 0.34%

Reference: PubChem BioAssay AID1963867 (Molecular Pharmacology Branch, DTP, NCI, 2024)
